Values joined by “and” are separate entries in the source; they are usually repeats but may differ in a detail not shown here. Identical values can stand only once. Like-named read-outs stand apart in the source and are kept apart here.
Legend:
[1] = Viability (viabilita) used to normalise caspase activity; format: cell-based, human; conditions: human, MCF-7 cells, kontrola = 100;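 further: compound tested at 100 nM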
Excerpt: Supplement pone.0139929.s002.zip/caspases activity.xlsx, sheet "results_viability"

[2] = test system: 3T3 mouse embryo fibroblasts; assay: MTT cytotoxicity assay, 3T3 cells; format: cell-based; conditions: for IC50: MTT
Description: (§1) For cytotoxicity experiments, cancer cells were seeded at a density of 5,000 (MCF-7), 10,000 (HL-60) or 2,000 cells/well (HCT116 and A549) in 96-well plates (TPP) for 24 h/37°C prior to the addition of examined agents. The non-cancerous cells, 3T3 and H9c2 cells, were cultured for 24 h/37°C in 96-well plates at a density of 10,000 cells/well, the medium was then changed to serum- and pyruvate-free DMEM (Sigma-Aldrich) and incubated with the cells for another 24 h/37°C. The cytotoxic effects of Bp4eT and its metabolites were studied at different concentrations after a 72 h/37°C incubation. In order to aid the dissolution of the lipophilic ligands, 0.1% dimethyl sulfoxide (v/v) (DMSO; Sigma-Aldrich) was present in the culture medium of all groups. At this concentration, DMSO had no effect on cellular proliferation or viability.
(§2) The viability of cells were determined using an MTT assay (Sigma-Aldrich) according to previously established methods. The optical density of soluble MTT was measured at λ = 570 nm, subtracting the λ = 690 nm background using a Tecan Infinite 200M plate reader (Tecan Group, Männedorf, Switzerland). The viability or proliferation of experimental groups was expressed as a percentage of the untreated controls (100%).
(§3) SigmaStat for Windows 3.5 (Systat Software, San Jose, CA, USA) statistical software package was utilized to analyze results. The data are expressed as the mean ± SD of a given number of experiments. Statistical significance was determined using a one-way ANOVA with a Bonferroni post-hoc test or Student’s t-test. The results were considered to be statistically significant when p < 0.05. The IC50 values were calculated using CalcuSyn 2.0 software (Biosoft, Cambridge, UK). Cell cycle analysis was evaluated using MultiCycle AV Software (Phoenix Flow Systems, San Diego, CA, USA).

[3] = test system: MCF-7 cells prelabeled with 59Fe2-transferrin; assay: Mobilization (efflux) of cellular 59Fe; format: cell-based, human; set-up: Efflux 59Fe / Efflux 59Fe, Ave: unit not given here
Excerpt: Human transferrin (Sigma) was labeled with ^56Fe or ^59Fe (PerkinElmer, Massachusetts, USA) to produce ^56Fe2-transferrin or ^59Fe2-transferrin (^59Fe2-Tf), respectively, with a final specific activity of 500 pCi/pmol Fe, as previously described. Unbound ^59Fe was removed by exhaustive vacuum dialysis against a large excess of 0.15 M NaCl buffered to pH 7.4 with 1.4% NaHCO3 by standard methods.
To examine the ability of studied compounds to mobilize cellular ^59Fe from MCF-7 cells, iron efflux experiments were performed using established techniques. In brief, after pre-labeling confluent MCF-7 cells on 6-well plates with 0.75 μM ^59Fe2-Tf for 3 h/37°C, the cells were washed four times with ice-cold PBS and then subsequently incubated with 25 μM of Bp4eT or its metabolites for 3 h/37°C. The overlying medium containing released ^59Fe was then decanted from the cells. Radioactivity was measured in both the cells and the supernatant using a γ-scintillation counter (Wallac Wizard 3, Turku, Finland).

[4] = test system: MCF-7 human breast adenocarcinoma cells; assay: MTT cytotoxicity assay, MCF-7 cells; format: cell-based; conditions: for IC50: Homo sapiens, MTT; for MTT, relative to control (0 = 100): MCF-7
Description: as §1, §2, §3

CCNC(=S)NN=C(c1ccccc1)c1ccccn1 [Bp4eT, 2-benzoylpyridine 4-ethyl-3-thiosemicarbazone]
viability at 3 h, 100 nM ([1]; 3 hodiny): 96.3%
viability at 24 h, 100 nM ([1]; 24 hodin): 52.8%
viability at 72 h, 100 nM ([1]; 72 hodin): 27.1%
IC50 ([2]; 3T3, 10 000 b/j, individual experiments, read-out: IC50): 1080 nM and 1700 nM and 1480 nM
MTT viability (0 = 100) ([2]; 3T3, 10 000 b/j, koncentrace 3 nM, individual experiments): 107.858 and 101.159 and 95.977
MTT viability (0 = 100) ([2]; 3T3, 10 000 b/j, koncentrace 10 nM, individual experiments): 95.2009 and 97.9751 and 101.968 and 103.897
MTT viability (0 = 100) ([2]; 3T3, 10 000 b/j, koncentrace 30 nM, individual experiments): 82.5017 and 95.1437 and 97.4935 and 93.6042
MTT viability (0 = 100) ([2]; 3T3, 10 000 b/j, koncentrace 100 nM, individual experiments): 72.3252 and 75.1668 and 68.1869
MTT viability (0 = 100) ([2]; 3T3, 10 000 b/j, koncentrace 300 nM, individual experiments): 69.1649 and 63.247 and 72.6411
MTT viability (0 = 100) ([2]; 3T3, 10 000 b/j, koncentrace 1000 nM, individual experiments): 57.0662 and 64.2452 and 55.7111
MTT viability (0 = 100) ([2]; 3T3, 10 000 b/j, koncentrace 3000 nM, individual experiments): 36.2815 and 49.6279 and 43.6868
IC50 ([2]; Mus musculus, Fibroblast, 3T3, 10 000 b/j, individual experiments, read-out: IC50): 977 nM
IC50 ([2]; Mus musculus, Fibroblast, 3T3, 10 000 b/j, mean, read-out: IC50, průměr): 1310 nM
IC50 ([2]; Mus musculus, Fibroblast, 72 h, 3T3, 72 h/37°C, mean ± SD, n ≥ 4, read-out: IC50): 1310 ± 337 nM
Release of cellular 59Fe, % of total cellular 59Fe ([3]; 25 μM, 3 h/37°C, MCF-7): 46.4%
Efflux 59Fe, Ave ([3]; average of all replicates): 46.4439
Efflux 59Fe ([3]; single replicate (three per date)): 48.2798 and 45.5975 and 45.2039 and 47.6936 and 45.8687 and 45.6484 and 48.9726 and 45.6298 and 45.1012
MCF-7 proliferation, % of the control ([4]; 0.1 μM, 72 h): 27%
Therapeutic index, IC50 non-cancerous cells / IC50 neoplastic cells ([4]; 3T3/MCF-7): 87.3
Therapeutic index, IC50 non-cancerous cells / IC50 neoplastic cells ([4]; H9c2/MCF-7): 34.9
IC50 ([4]; MCF7, 72 h, MCF-7, 72 h/37°C, mean ± SD, n ≥ 4, read-out: IC50): 15 ± 2 nM
IC50 ([4]; MCF7, MCF-7, 5 000 b/j, průměr (mean), read-out: IC50 měřené): 14.6 nM
IC50 ([4]; MCF7, MCF-7, 5 000 b/j, single experiment (date), read-out: IC50 měřené): 14.6 nM
MTT, relative to control (0 = 100) ([4]; 5 000 b/j, 0.1 nM, průměr (mean)): 96.38
MTT, relative to control (0 = 100) ([4]; 5 000 b/j, 0.1 nM, single experiment (date)): 88.7924 and 103.938 and 95.2002 and 101.937 and 92.0538
MTT, relative to control (0 = 100) ([4]; 5 000 b/j, 0.3 nM, průměr (mean)): 88.87
MTT, relative to control (0 = 100) ([4]; 5 000 b/j, 0.3 nM, single experiment (date)): 99.7305 and 86.2923 and 86.9644 and 82.4877
MTT, relative to control (0 = 100) ([4]; 5 000 b/j, 1 nM, průměr (mean)): 87.17
MTT, relative to control (0 = 100) ([4]; 5 000 b/j, 1 nM, single experiment (date)): 87.1761 and 96.2311 and 86.4816 and 83.9319 and 82.0349
MTT, relative to control (0 = 100) ([4]; 5 000 b/j, 3 nM, průměr (mean)): 84.98
MTT, relative to control (0 = 100) ([4]; 5 000 b/j, 3 nM, single experiment (date)): 92.03 and 87.788 and 84.0816 and 76.0316
MTT, relative to control (0 = 100) ([4]; 5 000 b/j, 10 nM, průměr (mean)): 59.89
MTT, relative to control (0 = 100) ([4]; 5 000 b/j, 10 nM, single experiment (date)): 58.817 and 55.8764 and 63.7331 and 67.2949 and 53.713
MTT, relative to control (0 = 100) ([4]; 5 000 b/j, 30 nM, průměr (mean)): 30.78
MTT, relative to control (0 = 100) ([4]; 5 000 b/j, 30 nM, single experiment (date)): 29.4154 and 32.9782 and 31.8134 and 28.9002
MTT, relative to control (0 = 100) ([4]; 5 000 b/j, 100 nM, průměr (mean)): 27.09

From PMC4604124, “In Vitro Characterization of the Pharmacological Properties of the Anti-Cancer Chelator, Bp4eT, and Its Phase I Metabolites” (PLoS ONE, 2015)
